We go through three compounds from article PMC10307035, “Antiviral activity of singlet oxygen-photogenerating perylene compounds against SARS-CoV-2: Interaction with the viral envelope and photodynamic virion inactivation” (Virus Research, 2023).

The subject of data set [1] is SARS-CoV-2 (Wuhan variant). Nature of the data set: Quantification of viral RNA synthesis by RT-qPCR. The data set is classed as cell-based. Particulars: 10 µM, Vero cells, 48 h. A general note: In qPCR the cycle at which signal appears reflects the starting amount.
Data set [2] deals with SARS-CoV-2 (Wuhan variant). Put plainly: Viral membrane interaction study (virus pre-treatment at 37 °C or 4 °C). The data set is classed as cell-based. Particulars: 10 µM; for virus' viability after pre-treatment at 4 °C (assay B): 1 h at 4 °C; for virus' ability to form plaques after pre-treatment at 37 °C (assay A): 1 h at 37 °C.
The test system of data set [3] is SARS-CoV-2 (Wuhan variant). Put plainly: Fusion assay. Particulars: for reduction in plaque numbers (fusion assay): 1 and 10 µM, compounds added after virus attachment at 4 °C, then 37 °C.

On to `O=c1[nH]c(=O)n([C@H]2C[C@H](O)[C@@H](CO)O2)cc1C#Cc1ccc2c3cccc4cccc(c5cccc1c52)c43` [Compound 2, 5-(perylen-3-yl)ethynyl-2′-deoxy-uridine], for which the “synthesis of viral genomic RNA” value in data set [1] was “suppressed the synthesis of viral genomic RNA”. Also, in data set [2], the “virus' viability after pre-treatment at 4 °C (assay B)” value (“virus' viability after pre-treatment” for short) was “partially restored” and the “virus' ability to form plaques after pre-treatment at 37 °C (assay A)” value (“virus' ability to form plaques” for short) is recorded as “completely inhibited”. The “reduction in plaque numbers (fusion assay)” value (“reduction in plaque numbers” for short) in data set [3] is listed as “significantly decreased plaque counts only at 10 µM”.
Regarding `O=C(NCCCCO)c1ccc(-c2ccc3c4cccc5cccc(c6cccc2c63)c54)s1` [Compound 17], in data set [1], the “synthesis of viral genomic RNA” value is given as “suppressed the synthesis of viral genomic RNA”. Further, in data set [2], the “virus' viability after pre-treatment” value is given as “partially restored” and the “virus' ability to form plaques” value was “completely inhibited”. The “cytotoxicity to Vero cells in the fusion assay” value in data set [3] (10 µM) is on record as “observable cytotoxicity”. In data set [3], the “reduction in plaque numbers” value is reported as “statistically significant reduction in plaque numbers”.
`CC(C)(C)C(=O)OCn1c(=O)c(C#Cc2ccc3c4cccc5cccc(c6cccc2c63)c54)cn(CC(=O)N(CCO)CCO)c1=O` [Compound 13]: the “synthesis of viral genomic RNA” value in data set [1] is reported as “suppressed the synthesis of viral genomic RNA”. Besides, in data set [2], the “virus' viability after pre-treatment” value is on record as “partially restored” and the “virus' ability to form plaques” value is on record as “completely inhibited”. Besides, the “reduction in plaque numbers” value in data set [3] is recorded as “statistically significant reduction in plaque numbers”.
